Measurements taken from ChEMBL document CHEMBL1201862, “PubChem BioAssay data set” (2004).
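Where inhibition never reached the appropriate level, the endpoint shown equals the highest concentration tested. Otherwise, values were interpolated linearly from a five-concentration, 48-hour dose response in 96-well plates. The concentration for 50% growth inhibition is given as GI50.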 Activity calls are given as the source filed them. Cut-off read from the data, not from the text of the source: active = GI50 up to about 1.1 µM and inactive = higher.

Columns and labels:
Experiment in all cases: NCI tumour cell line growth inhibition, 48 h
[1] = test system: A549
[2] = test system: MOLT-4
[3] = test system: ACHN
[4] = test system: LOX IMVI
[5] = test system: IGROV-1
[6] = test system: K562
[7] = test system: U-251
[8] = test system: MCF7
[9] = test system: KM12
[10] = test system: COLO 205
[11] = test system: SF-295
[12] = test system: SNB-75
[13] = test system: OVCAR-4
[14] = test system: TK-10
[15] = test system: UACC-257
[16] = test system: HL-60
[17] = test system: 786-0
[18] = test system: OVCAR-5
[19] = test system: Malme-3M
[20] = test system: SK-MEL-28

Structure (SMILES)	GI50 [1]	GI50 [2]	GI50 [3]	GI50 [4]	GI50 [5]	GI50 [6]	GI50 [7]	GI50 [8]	GI50 [9]	GI50 [10]	GI50 [11]	GI50 [12]	GI50 [13]	GI50 [14]	GI50 [15]	GI50 [16]	GI50 [17]	GI50 [18]	GI50 [19]	GI50 [20]
CCN(CC)c1ccc2cc(-c3nc4ccccc4n3C)c(=O)oc2c1	0.578 µM (active)	0.533 µM (active)	2.79 µM (inactive)	0.495 µM (active)	0.485 µM (active)	0.102 µM (active)	0.352 µM (active)	0.667 µM (active)	0.571 µM (active)	0.315 µM (active)	0.285 µM (active)	0.0177 µM (active)	> 100 µM (inactive)	> 100 µM (inactive)	1.17 µM (inactive)	0.206 µM (active)	0.381 µM (active)	1.15 µM (inactive)		
Cc1nc(O)nc2nc3cc(Cl)cc(Cl)c3c(NC(C)(CO)CO)c12	> 100 µM (inactive)	> 100 µM (inactive)	50.5 µM (inactive)	> 100 µM (inactive)	35.9 µM (inactive)	> 100 µM (inactive)	14.4 µM (inactive)	1.55 µM (inactive)	> 100 µM (inactive)	> 100 µM (inactive)	30.3 µM (inactive)	11.4 µM (inactive)	> 100 µM (inactive)	27.4 µM (inactive)	> 100 µM (inactive)		15.6 µM (inactive)		> 100 µM (inactive)	> 100 µM (inactive)
c1ccc2c(c1)CCc1c-2n(CCN2CCCCC2)c2ccccc12	18.7 µM (inactive)	13.9 µM (inactive)	18.7 µM (inactive)	15.1 µM (inactive)	11.4 µM (inactive)	9.75 µM (inactive)	14.3 µM (inactive)	15.2 µM (inactive)	14.9 µM (inactive)	11.8 µM (inactive)	16.9 µM (inactive)	16.4 µM (inactive)	18.8 µM (inactive)	19.1 µM (inactive)	17.2 µM (inactive)		16.3 µM (inactive)	15.5 µM (inactive)	24.7 µM (inactive)	19.6 µM (inactive)
COc1cc(C=O)cc(/C=N/N=C/c2ccccc2O)c1O	79.6 µM (inactive)	0.0182 µM (active)	16.7 µM (inactive)	21.7 µM (inactive)	40.1 µM (inactive)		29.8 µM (inactive)	64.7 µM (inactive)	76.9 µM (inactive)	30.5 µM (inactive)	2.7 µM (inactive)		> 100 µM (inactive)	82.6 µM (inactive)	32.9 µM (inactive)	< 0.01 µM (active)	19.2 µM (inactive)		3.97 µM (inactive)	14.7 µM (inactive)
O=C(Cn1c(-c2ccccc2)cc2ccccc21)N1CCCC1	> 100 µM (inactive)	> 100 µM (inactive)	> 100 µM (inactive)	> 100 µM (inactive)	> 100 µM (inactive)			> 100 µM (inactive)		> 100 µM (inactive)	> 100 µM (inactive)	> 100 µM (inactive)	> 100 µM (inactive)		> 100 µM (inactive)		> 100 µM (inactive)	> 100 µM (inactive)	> 100 µM (inactive)	
O=c1[nH]c(=O)n(COCCO)c2ccc(Br)cc12	> 100 µM (inactive)	> 100 µM (inactive)	> 100 µM (inactive)	> 100 µM (inactive)	77.1 µM (inactive)	> 100 µM (inactive)	> 100 µM (inactive)	> 100 µM (inactive)	> 100 µM (inactive)	> 100 µM (inactive)	> 100 µM (inactive)	39 µM (inactive)	> 100 µM (inactive)	> 100 µM (inactive)	> 100 µM (inactive)	> 100 µM (inactive)	> 100 µM (inactive)	> 100 µM (inactive)		> 100 µM (inactive)
Cc1c(C(=O)C(=O)c2ccccc2)c(C)c(C(=O)C(=O)c2ccccc2)c(C)c1C(=O)C(=O)c1ccccc1	> 100 µM (inactive)	> 100 µM (inactive)	> 100 µM (inactive)		> 100 µM (inactive)	> 100 µM (inactive)	> 100 µM (inactive)	> 100 µM (inactive)	> 100 µM (inactive)	> 100 µM (inactive)	> 100 µM (inactive)	> 100 µM (inactive)	> 100 µM (inactive)	> 100 µM (inactive)	> 100 µM (inactive)	> 100 µM (inactive)	> 100 µM (inactive)	> 100 µM (inactive)		> 100 µM (inactive)
COC(=O)c1c(C)cc(OC)c(C/C=C(\C)CCCc2coc(C=C(C)C)c2)c1OC	> 100 µM (inactive)	37.4 µM (inactive)	> 100 µM (inactive)	> 100 µM (inactive)	> 100 µM (inactive)	> 100 µM (inactive)	> 100 µM (inactive)	> 100 µM (inactive)	> 100 µM (inactive)	> 100 µM (inactive)	> 100 µM (inactive)	21.3 µM (inactive)	> 100 µM (inactive)	> 100 µM (inactive)	> 100 µM (inactive)	21.9 µM (inactive)	> 100 µM (inactive)	> 100 µM (inactive)		> 100 µM (inactive)
COc1ccc(Oc2nc3ccc(C(F)(F)F)cc3nc2-c2ccccc2)cc1		62.4 µM (inactive)	> 100 µM (inactive)	> 100 µM (inactive)	> 100 µM (inactive)	87.9 µM (inactive)	> 100 µM (inactive)	65.5 µM (inactive)	> 100 µM (inactive)	> 100 µM (inactive)	> 100 µM (inactive)		> 100 µM (inactive)	> 100 µM (inactive)	> 100 µM (inactive)	42 µM (inactive)	> 100 µM (inactive)	> 100 µM (inactive)	> 100 µM (inactive)	> 100 µM (inactive)
CCOC(=O)C#Cc1ccccc1	13.2 µM (inactive)	2.9 µM (inactive)	14.6 µM (inactive)	2.96 µM (inactive)		2.14 µM (inactive)	11.1 µM (inactive)	10.1 µM (inactive)	12.2 µM (inactive)	11.2 µM (inactive)	13.5 µM (inactive)		2.54 µM (inactive)	21.6 µM (inactive)	33.9 µM (inactive)	14.4 µM (inactive)	4.84 µM (inactive)	5.08 µM (inactive)	13.1 µM (inactive)	16.8 µM (inactive)
Cc1ccc(S(=O)(=O)[N-]C2C(=O)c3ccccc3C(=O)C2[n+]2cccc(C(N)=O)c2)cc1 (stereo unspecified)	> 100 µM (inactive)	> 100 µM (inactive)	> 100 µM (inactive)	30.7 µM (inactive)	> 100 µM (inactive)	> 100 µM (inactive)	> 100 µM (inactive)	> 100 µM (inactive)	> 100 µM (inactive)	24.8 µM (inactive)	> 100 µM (inactive)	> 100 µM (inactive)	26.9 µM (inactive)	33.9 µM (inactive)	> 100 µM (inactive)	> 100 µM (inactive)	30.8 µM (inactive)	> 100 µM (inactive)		> 100 µM (inactive)
O=c1n(-c2ccccc2)c(=O)n2n1C1Cc3ccccc3C12 (stereo unspecified)	> 100 µM (inactive)	> 100 µM (inactive)	> 100 µM (inactive)	> 100 µM (inactive)	> 100 µM (inactive)	> 100 µM (inactive)	> 100 µM (inactive)	> 100 µM (inactive)	> 100 µM (inactive)	> 100 µM (inactive)	> 100 µM (inactive)	69.5 µM (inactive)		> 100 µM (inactive)	> 100 µM (inactive)	> 100 µM (inactive)	> 100 µM (inactive)	> 100 µM (inactive)		> 100 µM (inactive)
O=c1oc2cc(O)ccc2c(O)c1C(c1ccccc1F)c1c(O)c2ccc(O)cc2oc1=O	> 100 µM (inactive)	45.8 µM (inactive)	> 100 µM (inactive)	46 µM (inactive)	> 100 µM (inactive)	25.4 µM (inactive)	42.3 µM (inactive)	45.2 µM (inactive)	78.3 µM (inactive)	> 100 µM (inactive)	> 100 µM (inactive)	> 100 µM (inactive)		> 100 µM (inactive)	> 100 µM (inactive)	17.9 µM (inactive)	> 100 µM (inactive)	> 100 µM (inactive)		52 µM (inactive)
C=C(C)[C@@H]1CC[C@]2(C(=O)O)CC[C@]3(C)[C@H](CCC4[C@@]5(C)CC[C@H](C(=O)/C=C/c6ccc(O)c(O)c6)C(C)(C)[C@@H]5CC[C@]43C)[C@@H]12 (stereo partly specified)	2.58 µM (inactive)	2.94 µM (inactive)	2.72 µM (inactive)	3.34 µM (inactive)	4.24 µM (inactive)	3.85 µM (inactive)		4.04 µM (inactive)	2.2 µM (inactive)	2.84 µM (inactive)	3.75 µM (inactive)	0.0513 µM (active)	10.4 µM (inactive)	11 µM (inactive)	2.81 µM (inactive)	2.17 µM (inactive)	4.35 µM (inactive)	12.7 µM (inactive)		
OC(CCN1CCCCC1)(c1ccccc1)c1ccccc1 [PRIDINOL]	> 100 µM (inactive)	> 100 µM (inactive)	> 100 µM (inactive)	> 100 µM (inactive)	> 100 µM (inactive)	> 100 µM (inactive)	> 100 µM (inactive)	> 100 µM (inactive)	> 100 µM (inactive)	> 100 µM (inactive)	> 100 µM (inactive)			> 100 µM (inactive)			> 100 µM (inactive)	> 100 µM (inactive)	> 100 µM (inactive)	> 100 µM (inactive)
